Source: US20230114728A1 (Venatorx Pharmaceuticals, Inc., priority 2019, published 2023)
In brackets after ≈: the same amount, converted by molar mass.

What was measured:
Assay in all cases: Broth microdilution MIC in iron-depleted CAMHB (IDM)
Type in all cases: cell-based
A. baumannii ATCC 17978 = conditions: Acinetobacter baumannii, ATCC17978, read-out: Minimum Inhibitory Concentration, ATCC 17978
Summary of the method: (§1)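 CLSI broth microdilution in iron-depleted CAMHB (Chelex 100-treated, Ca, Mg and 10 μM Zn re-added, pH 7.3). Inoculum was 2-8×10^5 CFU/mL from 3-5 h IDM cultures. Plates were incubated at 37° C for 20-24 h (Acinetobacter) or 16-20 h (Pseudomonas), and MIC was read visually as the lowest concentration without growth.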

A. baumannii ATCC 19606 = conditions: Acinetobacter baumannii, ATCC19606, read-out: Minimum Inhibitory Concentration, ATCC 19606
Summary of the method: as §1

[1] = test system: A. baumannii CDC-0033 producing NDM-1, and OXA-94; conditions: Acinetobacter baumannii, read-out: Minimum Inhibitory Concentration, CDC-0033
Summary of the method: as §1

[2] = test system: A. baumannii CDC-0036 OXA-65, and OXA-24; conditions: Acinetobacter baumannii, read-out: Minimum Inhibitory Concentration, CDC-0036
Summary of the method: as §1

[3] = test system: A. baumannii CDC-0083 producing NDM-1, PER-7, OXA-23, and OXA-69; conditions: Acinetobacter baumannii, read-out: Minimum Inhibitory Concentration, CDC-0083
Summary of the method: as §1

[4] = test system: P. aeruginosa (ΔmexAB-oprM); conditions: Pseudomonas aeruginosa, read-out: Minimum Inhibitory Concentration, P. aeruginosa ΔmexAB-OprM
Summary of the method: as §1

P. aeruginosa ATCC 27853 = conditions: Pseudomonas aeruginosa, ATCC27853, read-out: Minimum Inhibitory Concentration, P. aeruginosa ATCC 27853
Summary of the method: as §1

P. aeruginosa ATCC 35151 = conditions: Pseudomonas aeruginosa, ATCC35151; iron-depleted MHB (IDM); hyper-permeable strain; read-out: Minimum Inhibitory Concentration, P. aeruginosa ATCC 35151
Summary of the method: as §1

[5] = test system: P. aeruginosa CDC-0054 producing VIM-4, OXA-50, and PAO; conditions: Pseudomonas aeruginosa, read-out: Minimum Inhibitory Concentration, P. aeruginosa CDC-0054
Summary of the method: as §1

[6] = test system: P. aeruginosa CDC-0090 producing KPC-5, OXA-50, and PAO; conditions: Pseudomonas aeruginosa, read-out: Minimum Inhibitory Concentration, P. aeruginosa CDC-0090
Summary of the method: as §1

[7] = test system: P. aeruginosa CDC-0095 producing OXA-50, and PAO; conditions: Pseudomonas aeruginosa, read-out: Minimum Inhibitory Concentration, P. aeruginosa CDC-0095
Summary of the method: as §1

SMILES: CCN1CCN(C(=O)N[C@H](C(=O)N[C@H]2Cc3ccc(F)c(C(=O)O)c3OB2O)c2ccc(O)c(O)c2)C(=O)C1=O [Example 210, (R)-3-((S)-2-(3,4-dihydroxyphenyl)-2-(4-ethyl-2,3-dioxopiperazine-1-carboxamido)acetamido)-7-fluoro-2-hydroxy-3,4-dihydro-2H-benzo[e][1,2]oxaborinine-8-carboxylic acid]
- MIC (A. baumannii ATCC 17978): > 128 µg/mL
- MIC (A. baumannii ATCC 19606): > 128 µg/mL
- MIC [1]: > 128 µg/mL
- MIC [2]: > 128 µg/mL
- MIC [3]: > 128 µg/mL
- MIC [4]: 8 to 16 µg/mL (≈ 14.3 to 28.7 µM)
- MIC (P. aeruginosa ATCC 27853): > 128 µg/mL
- MIC (P. aeruginosa ATCC 35151): 2 to 4 µg/mL (≈ 3.58 to 7.16 µM)
- MIC [5]: > 128 µg/mL
- MIC [6]: > 128 µg/mL
- MIC [7]: > 128 µg/mL

SMILES: CCN1CCN(C(=O)N[C@@H](C(=O)N[C@H]2Cc3ccc(F)c(C(=O)O)c3OB2O)c2ccc(O)c(O)c2)C(=O)C1=O [Example 211, (R)-3-((R)-2-(3,4-dihydroxyphenyl)-2-(4-ethyl-2,3-dioxopiperazine-1-carboxamido)acetamido)-7-fluoro-2-hydroxy-3,4-dihydro-2H-benzo[e][1,2]oxaborinine-8-carboxylic acid]
- MIC (A. baumannii ATCC 17978): 2 to 4 µg/mL (≈ 3.58 to 7.16 µM)
- MIC (A. baumannii ATCC 19606): 2 to 4 µg/mL (≈ 3.58 to 7.16 µM)
- MIC [1]: 32 to 64 µg/mL (≈ 57.3 to 115 µM)
- MIC [2]: 8 to 16 µg/mL (≈ 14.3 to 28.7 µM)
- MIC [3]: > 128 µg/mL
- MIC [4]: 0.25 µg/mL (≈ 0.448 µM)
- MIC (P. aeruginosa ATCC 27853): 8 to 16 µg/mL (≈ 14.3 to 28.7 µM)
- MIC (P. aeruginosa ATCC 35151): 0.25 µg/mL (≈ 0.448 µM)
- MIC [5]: 8 to 16 µg/mL (≈ 14.3 to 28.7 µM)
- MIC [6]: 8 to 16 µg/mL (≈ 14.3 to 28.7 µM)
- MIC [7]: 8 to 16 µg/mL (≈ 14.3 to 28.7 µM)
